Experimental findings from patent publication US11154536B2, “Pyrazoline-derived compound and its use in a weekly dosage regime against inflammation and pain derived from degenerative joint disease in mammals” (ECUPHAR N.V., priority 2014, dated 2021) are described below.

The test system of data set [1] is urate crystal induced acute arthritis in the stifle (femorotibial) joint. The experiment in a line: Example 1: reversible urate crystal acute arthritis model in dog, E-6087 p.o. 4 mg/kg on D0 and D12. Format: in vivo. The source says: (§1) The experimental model used in both studies was the same and it consists in the induction of an acute arthritis through the inoculation of an urate crystal suspension in the stifle (femorotibial) joint of dogs. […] Partial or total inhibition of this reaction at a given time point after treatment administration is attributable to its pharmacological effect.
(§2) The reversible urate crystal arthritis model used in next examples has been previously described in the literature [Toutain P. L. et al. J. Vet. Pharmacol. Therap. 24, 43-55, 2001].
(§3) A sodium urate crystal suspension at a concentration of 10 mg·mL-1 was prepared as follows: • Uric acid sodium salt (Sigma) was weighed in a 100 mL graduated flask. • 0.9% NaCl solution was added to a final volume of 100 mL. • The suspension was mixed at room temperature by vortexing for approximately 5 min, by magnetic stirring for 5 min and was then sonicated for approximately 1 h. • The suspension was distributed in 1.5 mL vials and then autoclaved for 2 h at 120° C. • Finally the suspension was mixed by vortexing for 5 min, and sonicated for approximately 1 h.
(§4) The intra-articular injections were performed under general anaesthesia using Propovet multidose at a propofol dose of 6.5 mg.kg-1 by intravenous route without premedication. This induction medication was intended to result in a rapid onset anaesthesia with duration of about 10 minutes of unconsciousness and full recovery within approximately 30 minutes. For most of the dogs, Propovet multidose (half dose) was re-injected to maintain appropriate anaesthesia.
(§5) All urate crystal injections were introduced in the stifle (femorotibial) joint. The intra-articular injection was performed under aseptic conditions using a 30 mm long and 1 mm diameter sterile needle and a 2.5 mL syringe. The joint was checked for successful joint puncture, by synovial aspiration. One millilitre of urate crystal suspension was used for each intra-articular injection.
(§6) The duration of the induced inflammatory process was expected to be approximately 16 to 24 h and the average time of maximum lameness in untreated animals 2 to 3 hours after induction.
(§7) To assess the anti-inflammatory and analgesic effect of the test item, two clinical signs of arthritis were investigated: lameness and pain, respectively. Their intensity was determined using the following scoring systems:
This study was designed to determine whether the blood levels of E-6087 achieved after one single oral dose of E-6087 at 4 mg/kg in dog, do have some short and/or long-term antiinflammatory and analgesic effects. In addition, a second dose of E-6087 at 4 mg/kg was administered to evaluate the eventual effect derived from the accumulation of the molecule in blood.
The study was performed with seven male Beagle dogs randomly allocated to 3 groups.
During the study, the arthritis induction model was implemented on four occasions to each dog: • In dogs of Group I, on Days 0*, 7, 14** and 21. • In dogs of Group II, on Days 2**, 7, 14** and 21. • In dogs of Group III, on […].
(§8) According to the institutional ethics committee's recommendations, the first and third inoculations were done in the right stifle while the second and fourth inoculations were done in the left stifle. On each day of arthritis induction, the anti-inflammatory and analgesic efficacy of treatments was assessed at different time points (just before the inoculation, and 0.5, 1, 2, 3, 4, 6, 9 and 12 hours later). Two clinical signs of arthritis were assessed by using a scoring system at each time point: visual lameness (whilst standing and walking) and pain at (inoculated stifle) palpation. The median, minimal and maximal values for this parameter were determined for each group at each time point. Blood sampling was performed at different time points during the study in dogs of groups I and II in order to determine blood concentrations of E-6087.

Data set [2] has the same test system. The experiment in a line: Example 2: urate crystal acute arthritis model in dogs, loading dose plus weekly maintenance doses of E-6087. Format: in vivo, dog.
From the text: as §1, §2, §3, §4, §5, §6, §7
This study was designed to evaluate the effectiveness of two different treatment regimes for E-6087. In both cases it was administered a loading dose, followed by a weekly maintenance dose. […]
According to the institutional ethics committee's recommendations, the first and third inoculations were performed in the right stifle while the second inoculation was performed in the left stifle. On each day of arthritis induction, the anti-inflammatory and analgesic efficacy of treatments was assessed at different time points (just before the inoculation, and 0.5, 1, 2, 3, 4, 6, 9 and 12 hours later).
Two clinical signs of arthritis were assessed by using a scoring system at each time point: visual lameness (whilst standing and walking) and pain at (inoculated stifle) palpation. A combined visual lameness score, determined as the sum of the standing and walking lameness scores, was calculated and finally used for efficacy evaluation. The median, minimal and maximal values for this parameter were determined for each group at each time point. […]

Data set [3] deals with naturally occurring osteoarthritis. The experiment in a line: Example 3: randomized, blinded multi-centre clinical trial in dogs with naturally occurring osteoarthritis (Clinical Sum Score). Type of data set: in vivo, dog. Conditions: loading dose 4 mg/kg then 2 mg/kg weekly; for P of reduction in CSS compared to the Placebo group: tablets. On the procedure:
One study (headed as example 3) has been performed to evaluate the efficacy of E-6087 in dogs with naturally occurring osteoarthritis under real field conditions. E-6087 was administered in tablets.
For a dog to be included in the study, the following criteria must be fulfilled: • 1. Owner's consent obtained prior to the start of any study activities. • 2. Age ≥12 months. • 3. Body weight ≥5 kg. • 4. Clinical signs of osteoarthritis for one (with the exception of the spine including spinal joints, cranium, and vertebral column) or more joints for at least 3 weeks. • 5. Confirmation by radiographic evidence of the presence of osteoarthritis in the dog. […] Minimum Clinical Sum Score (CSS) ≥6. If more than one joint was affected by OA, the most severely affected joint (with the exception of the spine) was assessed subsequently for efficacy.
Once included, dogs were randomly assigned to a treatment group. A practitioner was in charge of administering either a Placebo or E-6087 under two different dosage regimes to animals, while another one was in charge of blindly evaluating the progression of clinical signs during a 42-day follow-up.
A Clinical Sum Score (CSS) was used for the assessment of pain and lameness at several time points during the follow-up, including clinical assessments in this order for posture, lameness at walk, lameness at rot and pain at palpation/manipulation. The CSS was the sum of the individual scores.
This study was designed to evaluate the effectiveness of E-6087 under real field conditions. E-6087 was administered at a loading dose of 4 mg/kg followed by weekly maintenance doses of 2 mg/kg The study was designed as a controlled, randomized, blinded, multi-centre clinical trial.
A total of 60 osteoarthritic dogs were included in the E-6087 group and 60 dogs in the Placebo group. All dogs underwent a follow-up period of 42 days, with clinical evaluations of lameness and pain on days 0, 7, 14, 28 and 42. A Clinical Sum Score (CSS) was calculated for the lameness and pain parameters at each time point.

Data set [4] is described as follows: Example 1: blood/plasma concentrations of E-6087 in treated dogs. Type of data set: in vivo, dog. How it is done:
as §8

Where [5] appears, read: induction on day D7 after the first 4 mg/kg p.o. dose.
Where [6] appears, read: induction two hours after the first 4 mg/kg p.o. dose (Day 0).
Setting [7] is: inductions on D14 and D21, after the second 4 mg/kg dose on D12.

Regarding `NS(=O)(=O)c1ccc(N2N=C(C(F)(F)F)CC2c2ccc(F)cc2F)cc1` (racemic) [E-6087], the “Adverse reactions related to the administration” value is listed as “No adverse reactions” in data set [1] (4 mg/kg p.o. on D0 and D12, throughout the 28-day study); “No adverse reactions” in data set [2] (Groups A, B and C, throughout the study). The “Persistence of anti-inflammatory/analgesic effect” value in data set [1] (after the second dose of 4 mg/kg (12 days after the first dose)) is “persisted at least during nine days”. For the same compound, the “Lameness assessment (control of induced lameness)” value in data set [1] (setting [5]) is recorded as “slightly controlled”; in data set [1] (setting [6]), “not controlled at all”; in data set [1] (setting [7]) it was “absolutely controlled”. Further, the “Pain assessment (control of induced pain at palpation)” value in data set [1] (setting [5]) is reported as “slightly controlled”; in data set [1] (setting [6]) it was “not controlled at all”; in data set [1] (setting [7]), “absolutely controlled”. The “Inflammatory/painful reaction after arthritis induction” value is “very mild reaction” in data set [2] (Group C, treatment regimen II (8 mg/kg loading, 4 mg/kg weekly), from Day 9 onwards); “severe inflammatory/painful reaction” in data set [2] (Group C, treatment regimen II, induction on Day 0, two hours after the 8 mg/kg loading dose); “mild inflammatory/painful reactions” in data set [2] (Groups A and B, treatment regimen I (4 mg/kg Days 0 and 1, then 4 mg/kg weekly), inductions on Days 2, 4 and 9); “none (or very mild) reactions” in data set [2] (Groups A and B, treatment regimen I, inductions on Days 14, 23 and 28). Also, the “P of reduction in CSS compared to the Placebo group” value in data set [3] (day 28, statistically significant) is reported as less than 0.05; in data set [3] (day 42, highly significant) it was less than 0.01. Also, in data set [3] (dropped under the threshold between day 7 and day 14), the “Mean Clinical Sum Score (CSS)” value is on record as less than 6. Also, the “Plasma levels after the second dose” value in data set [4] (4 mg/kg p.o. on D0 and D12, blood samples of treated dogs) is on record as “increase in plasma levels”. For the same compound, the “Blood levels 48 hours after administration” value in data set [4] (4 mg/kg p.o., 48 hours after administration) was “significant blood levels”.
